8 compounds from patent US20070179060A1, “6-(Poly-substituted aryl)-4-aminopicolinates and their use as herbicides” (priority 2006, published 2007) can be followed below.

Data set [1] relates to rice (Orysa sativa var. Japonica). Description: Herbicidal activity in transplanted paddy rice. Particulars: Oryza sativa, 504 h, transplant rice (crop), paddy water application, after 3 weeks; for pest or weed control at 70 g/ha: 70 g ai/ha; for pest or weed control at 17.5 g/ha: 17.5 g ai/ha. Type of data set: in vivo. Put shortly:
(§1)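 Rice seedlings transplanted at second to third leaf stage and weeds from seed were grown in flooded mud pots in a greenhouse (~29/26 °C, 14 h photoperiod). At second or third true leaf stage, acetone stock solutions were injected into the paddy water at the high rate and ½× to 1/16× dilutions. Solvent-blank controls.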

In data set [2] the test system is Echinochloa crus-galli. Description: Herbicidal activity in transplanted paddy rice. The class given is in vivo. Particulars: Echinochloa crus-galli, 504 h, paddy water application, after 3 weeks, read-out: % Control ECHCG; for pest or weed control at 70 g/ha: 70 g ai/ha; for pest or weed control at 17.5 g/ha: 17.5 g ai/ha. Put shortly:
as §1

For data set [3], the system named is Scirpus juncoides. The experiment in a line: Herbicidal activity in transplanted paddy rice. Type of data set: in vivo. Particulars: Schoenoplectiella juncoides, 504 h, paddy water application, after 3 weeks, read-out: % Control SCPJU; for pest or weed control at 70 g/ha: 70 g ai/ha; for pest or weed control at 17.5 g/ha: 17.5 g ai/ha. Put shortly: as §1
For data set [4], the system named is Monochoria vaginalis. Description: Herbicidal activity in transplanted paddy rice. The class given is in vivo. Particulars: Pontederia vaginalis, 504 h, paddy water application, after 3 weeks, read-out: % Control MOOVA; for pest or weed control at 70 g/ha: 70 g ai/ha; for pest or weed control at 17.5 g/ha: 17.5 g ai/ha. In a few lines:
as §1

Data set [5] has as its system Cyperus difformis. Description: Herbicidal activity in transplanted paddy rice. Type of data set: in vivo. The note with it: Cyperus difformis, 504 h, paddy water application, after 3 weeks, read-out: % Control CYPDI; for pest or weed control at 70 g/ha: 70 g ai/ha; for pest or weed control at 17.5 g/ha: 17.5 g ai/ha. Put shortly:
as §1

Data set [6] has as its system lambsquarter (Chenopodium album). Description: Preemergence herbicidal activity. Type of data set: in vivo. The note with it: Chenopodium album, pre-emergence, 480 h, pre-emergent, after 20-22 days, read-out: % Control CHEAL; for pest or weed control at 140 g/ha: 140 g ai/ha. In a few lines: (§2)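 Seeds sown in 70:30 loam (pH about 8.1, about 1.5% organic matter) and sand mix, then sprayed preemergence at 187 L/ha with a track sprayer; controls received solvent blank. Pots kept in greenhouse, about 15 h photoperiod, about 23-29° C. day and 22-28° C. night, top-irrigated.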

For data set [7], the system named is velvetleaf (Abutilon theophrasti). The experiment in a line: Preemergence herbicidal activity. Type of data set: in vivo. Particulars: Abutilon theophrasti, pre-emergence, 480 h, pre-emergent, after 20-22 days, read-out: % Control ABUTH; for pest or weed control at 140 g/ha: 140 g ai/ha. In a few lines: as §2
Data set [8] has as its system redroot pigweed (Amaranthus retroflexus). Description: Preemergence herbicidal activity. Type of data set: in vivo. The note with it: Amaranthus retroflexus, pre-emergence, 480 h, pre-emergent, after 20-22 days, read-out: % Control AMARE; for pest or weed control at 140 g/ha: 140 g ai/ha. In a few lines:
as §2

Turning to `COC(=O)c1nc(-c2c(F)cc(Br)c(OC)c2F)cc(N)c1Cl` [Compound 77, 4-Amino-6-(4-bromo-2,6-difluoro-3-methoxyphenyl)-3-chloropyridine-2-carboxylic acid, methyl ester], the pest or weed control at 35 g/ha in [1] (35 g ai/ha) worked out at 0%; in data set [2] (35 g ai/ha), 70%; in [3] (35 g ai/ha), 99%; in data set [4] (35 g ai/ha), 100%; in data set [5] (35 g ai/ha), 100%. Further, the pest or weed control at 140 g/ha in data set [6], in data set [7] and in data set [8] was 100% throughout.

In the case of `COc1c(Cl)ccc(-c2cc(N)c(Cl)c(C(=O)O)n2)c1Cl` [Compound 103, 4-Amino-3-chloro-6-(2,4-dichloro-3-methoxyphenyl)pyridine-2-carboxylic acid], the melting point was 179 to 180 °C (dec.). This compound also had a pest or weed control at 70 g/ha in [1] of 10%. In addition, the pest or weed control at 70 g/ha in data set [2] amounted to 40%. For the same compound, the pest or weed control at 70 g/ha in [3] amounted to 95%. Moreover, the pest or weed control at 70 g/ha in data set [4] turned out to be 100%. Also, in data set [5], the pest or weed control at 70 g/ha was found to be 100%. For the same compound, the pest or weed control at 123 g/ha in [6] (123 g ai/ha) came to 100%. Besides, the pest or weed control at 123 g/ha in data set [7] (123 g ai/ha) came to 90%. In data set [8] (123 g ai/ha), the pest or weed control at 123 g/ha is 100%.

Consider `COC(=O)c1nc(-c2ccc(Cl)c(OC)c2Cl)cc(N)c1Cl` [Compound 44, 4-Amino-3-chloro-6-(2,4-dichloro-3-methoxyphenyl)pyridine-2-carboxylic acid methyl ester], for which the melting point lay within 168 to 170 °C. Besides, in [1], the pest or weed control at 70 g/ha was determined as 0%. Besides, the pest or weed control at 70 g/ha in data set [2] worked out at 50%. The pest or weed control at 70 g/ha in [3] came out at 95%. Also, the pest or weed control at 70 g/ha in data set [4] was 90%. In data set [5], the pest or weed control at 70 g/ha stood at 100%. Also, the pest or weed control at 140 g/ha in [6] worked out at 95%. In addition, the pest or weed control at 140 g/ha in data set [7] was 95%. For the same compound, in data set [8], the pest or weed control at 140 g/ha was found to be 30%.

In the case of `COC(=O)c1nc(-c2c(F)cc(Cl)c(OC)c2F)cc(N)c1Cl` [Compound 58, 4-Amino-3-chloro-6-(4-chloro-2,6-difluoro-3-methoxyphenyl)pyridine-2-carboxylic acid, methyl ester], the pest or weed control at 17.5 g/ha in [1] is 0%; in [2], 30%; in [3], 50%; in data set [4], 100%; in [5], 100%. The pest or weed control at 140 g/ha in data set [6], in data set [7] and in [8] was 100% each time.

The compound `COC(=O)c1nc(-c2ccc(Br)c(OC)c2F)cc(N)c1Cl` [Compound 27, 4-amino-6-(4-bromo-2-fluoro-3-methoxyphenyl)-3-chloro-pyridine-2-carboxylic acid methyl ester] displayed a melting point of 164 to 165 °C. This compound returned a pest or weed control at 17.5 g/ha in [1] of 0%. Also, in data set [2], the pest or weed control at 17.5 g/ha turned out to be 45%. In addition, the pest or weed control at 17.5 g/ha in [3] was determined as 99%. For the same compound, in [4], the pest or weed control at 17.5 g/ha is 100%. In addition, the pest or weed control at 17.5 g/ha in [5] is 100%. Besides, the pest or weed control at 140 g/ha in data set [6] came to 90%. Further, in data set [7], the pest or weed control at 140 g/ha worked out at 100%. For the same compound, the pest or weed control at 140 g/ha in [8] amounted to 100%.

Turning to `COc1c(Cl)ccc(-c2cc(N)c(Cl)c(C(=O)O)n2)c1F` [Compound 100, 4-Amino-3-chloro-6-(4-chloro-2-fluoro-3-methoxyphenyl)pyridine-2-carboxylic acid], the pest or weed control at 17.5 g/ha in data set [1] came to 10%; in data set [2], 30%; in [3], 80%; in data set [4], 100%; in data set [5], 100%. The pest or weed control at 140 g/ha in [6], in data set [7] and in data set [8] was 100% in each case.

For the compound `COC(=O)c1nc(-c2ccc(Cl)c(OC)c2F)cc(N)c1Cl` [Compound 42, 4-Amino-3-chloro-6-(4-chloro-2-fluoro-3-methoxyphenyl)pyridine-2-carboxylic acid methyl ester], the pest or weed control at 17.5 g/ha in data set [1] was determined as 5%; in [2], 40%; in data set [3], 90%; in data set [4], 100%; in data set [5], 100%. For the same compound, the pest or weed control at 140 g/ha in [6], in data set [7] and in data set [8] was 100% each time.

Regarding `COC(=O)c1nc(-c2ccc(F)c(OC)c2F)cc(N)c1Cl` [Compound 70, 4-Amino-3-chloro-6-(2,4-difluoro-3-methoxyphenyl)pyridine-2-carboxylic acid, methyl ester], the pest or weed control at 70 g/ha in [1] was determined as 0%; in data set [2] it was 45%; in [3], 95%; in [4] it was 100%; in data set [5], 95%. Also, the pest or weed control at 140 g/ha in [6], in data set [7] and in data set [8] was 100% throughout.
